Experimental data published in patent US9084770B2, “Modulation of insulin like growth factor I receptor expression in cancer” (Antisense Therapeutics, Ltd., priority 2008, dated 2015).

What was measured:
[1] = system: IGF-IR protein (IGF-IRB subunit); test: IGF-IR protein in transfected LNCaP and PC3 cells, immunoblot; format: cell-based, human
Protocol: (§1) Established methods were used to test the activity of IGF-IR antisense oligonucleotide on LNCaP and PC-3 cell growth (crystal violet assay) and apoptosis (FACS). Dose- and sequence-specific suppression of IGF-IR mRNA and protein expression in ATL1101-treated LNCaP and PC3 PC cell lines in vitro were observed by QT-PCR and western blotting. Effects of the IGF-IR antisense oligonucleotide on various putative targets, including IGF-IR and downstream targets were evaluated using western blotting.
(§2) FIGS. 1B(i)-1B(ii) show sequence-specific and dose-dependent inhibition of IGF-IR protein by IGF-IR antisense oligonucleotide in LNCaP (FIG. 1B (i)) and PC-3 (FIG. […]) cells. […] Two days after the second transfection, whole cell detergent lysates were prepared and 30 μg of total protein was subjected to SDS-PAGE and immunoblotted for IGF-IRB subunit, IR-BB subunit and vinculin expression. Oligofectamine, oligofectamine treated cells only. In LNCaP cells, IGF-IR expression was >80% suppressed by 10 nM ATL1101 and was undetectable at 100 nM ATL1101. In PC3 cells, IGF-IR expression was suppressed ˜50% at 10 nM ATL1101, >80% at 50 nM ATL1101 and >90% at 200 nM. […] Vinculin expression is shown as a loading control.

IGF-IRB subunit = test: IGF-IRB immunoblot in PC3 cells with or without Paclitaxel; format: cell-based, human; conditions: 50 nM, with or without 1 nM Paclitaxel
Description: Vinculin expression is shown as a loading control.

Ki67 = Ki67 immunohistochemistry in psoriatic skin biopsies after topical treatment; format: in vivo; conditions: topically applied
Protocol: The present inventors assessed proliferation by Ki67 labeling in paraffin wax-embedded, formalin-fixed, 3 mm diameter, full-thickness psoriatic skin biopsies at the conclusion of the treatment phase of topically applied ATL1101. The tissue was analyzed to assess the effect of the antisense treatments on Ki67 expression using immunohistochemical analysis.

PC3 cells = test: PC3 viable cells and apoptosis after transfection plus Paclitaxel
Protocol: PC3 cells cultured in vitro were transfected at concentrations of IGF-IR antisense oligonucleotide (ATL1101) or control oligodeoxynucleotide (ISIS 306064) ranging from 12.5 nM to 50 nM or oligofectamine control once per day on two sequential days. After the 2nd transfection, the PC3 cells were treated with concentrations of between 0.1 to 50 nM Paclitaxel. The number of viable cells remaining were determined 72 hours after Paclitaxel treatment.

IGF-IR mRNA = IGF-IR mRNA expression in transfected LNCaP and PC-3 cells, quantitative RT-PCR; format: cell-based, human; conditions: one day after treatment
Protocol: as §1
FIGS. 1A(i)-1A(ii) show the sequence-specific and dose-dependent suppression of IGF-IR mRNA expression levels by ATL1101 in LNCaP (FIG. 1A (i)) and PC-3 (FIG. 1A (ii)) cells. […] One day after treatment, total RNA was extracted, and IGF-IR mRNA expression was analyzed by quantitative RT-PCR. IGF-IR mRNA levels were normalized to levels of GAPDH mRNA and expressed here as mean±SE. ***, p<0.001 differ from control (oligofectamine only) by Student's t test. “Control” cells were treated with oligofectamine only. In LNCaP cells, IGF-IR expression was >70% suppressed by 10 nM ATL1101 and >90% at 200 nM ATL1101. In PC3 cells, IGF-IR expression was suppressed ˜40% at 10 nM ATL1101, >50% at 50 nM ATL1101 and ˜80% at 200 nM. Control oligodeoxynucleotide (ISIS 306064) did suppress IGF-IR mRNA expression but by less than 25% at maximal doses tested

PC3 tumors = test: PC-3 xenograft with Paclitaxel, mean tumor volume; format: in vivo, mice; conditions: for mean tumor size: 15 mg/kg i.p. oligonucleotide plus Paclitaxel; for mean tumor size, % of control: plus Paclitaxel
Description: In vivo treatments in a PC-3 xenograft model were done substantially as described by Zellweger et al., 2001. PC3 cells (2×10^6 cells) were xenografted by subcutaneous injection into recipient 6-8 week-old athymic nude (nu/nu) mice. When tumors reached 200 mm^3, mice were randomly assigned to one of two arms for treatment with 2′-MOE-modified IGF-IR antisense oligonucleotide (ATL1101) plus Paclitaxel, or mismatch control oligodeoxynucleotide ISIS 306064 plus Paclitaxel. Each experimental group consisted of 10 mice. After randomization, 15 mg/kg of ATL1101 antisense oligonucleotide or mismatch control oligonucleotide were injected intraperitoneal (i.p.) into each mouse once daily for the first 5 days and 3 times a week (every other day) thereafter for 7 weeks. On days 7, 9, 11, and on days 21, 23, and 25, 0.5 mg of polymeric micellar Paclitaxel was administered once daily by i.v. injection. Mean Tumor volume was measured once weekly for 8 weeks and calculated by the formula length×width×depth×0.5236.
In PC3 mice, after 5 weeks of treatment, mean tumor size in mice treated with Paclitaxel and mismatch control oligodeoxynucleotide was 326+/−40.9 mm^3 compared with 175+/−20.1 mm^3 in mice treated with Paclitaxel and ATL1101, or 53.7% of control (p<0.01). After 8 weeks of treatment, mean tumor size in mice treated with Paclitaxel and mismatch control oligodeoxynucleotide was 1417+/−222 mm^3 compared with 507+/−79.3 mm^3 in mice treated with Paclitaxel and ATL1101, or 35.8% of control (p<0.01).

[2] = system: insulin receptor-B (IR-B); test: Insulin receptor-B protein in transfected LNCaP and PC3 cells, immunoblot; format: cell-based, human; conditions: highest ATL1101 concentration tested for each cell line (LNCaP, PC3)
Protocol: as §2

[3] = system: IGF-IRβ, p-AKT, p-ERK1/2, cleaved PARP; test: Intracellular signaling in LNCaP and PC3 cells, immunoblot; format: cell-based, human; conditions: 100 nM
Protocol: The suppression of intracellular signaling in IGF-IR antisense oligonucleotide-treated LNCaP (FIG. 3A) and PC3 (FIG. 3B) in vitro is shown in FIGS. 3A-3B. LNCaP or PC3 cells were transfected with 100 nM ATL1101 or control oligodeoxynucleotide (ISIS 306064) for two days. Cells were then cultured in FBS media for one day and in serum-free media for one day. Whole cell lysates (30 μg) were subjected to SDS-PAGE and immunoblotted to assess IGF-IRβ, p-AKT, total AKT, p-ERK1/2, total ERK1/2, cleaved PARP, and vinculin protein levels. Oligo, oligofectamine treated cells only.

Substance: cgaaggaaacaatactccga (CGAAGGAAACAATACTCCGA; 2'-MOE modified, pattern not given here) [ISIS 175317, 2′-MOE-modified IGF-IR antisense oligonucleotide, also known as ATL1101]
- suppression of IGF-IR protein expression ([1]; LNCaP cells, 10 nM, two days after second transfection): > 80%
- IGF-IR protein expression ([1]; LNCaP cells, 100 nM): undetectable
- suppression of IGF-IR protein expression ([1]; PC3 cells, 10 nM): ~50%
- suppression of IGF-IR protein expression ([1]; PC3 cells, 50 nM): > 80%
- suppression of IGF-IR protein expression ([1]; PC3 cells, 200 nM): > 90%
- IGF-IRB levels (IGF-IRB subunit): specifically reduced
- Ki67 by length (mm) and area (mm squared) vs. mismatch control (Ki67): Statistically significant reduction
- fold higher Paclitaxel concentration (10 nM vs 1 nM) needed with 25 nM mismatch control for similar viability (PC3 cells; 25 nM ATL1101 with 1 nM Paclitaxel): 10 fold
- amount of Paclitaxel required to induce tumor cell apoptosis (PC3 cells; in combination with ATL1101): significantly reduced
- suppression of IGF-IR mRNA expression (IGF-IR mRNA; LNCaP cells, 10 nM): > 70%
- suppression of IGF-IR mRNA expression (IGF-IR mRNA; LNCaP cells, 200 nM): > 90%
- suppression of IGF-IR mRNA expression (IGF-IR mRNA; PC3 cells, 10 nM): ~40%
- suppression of IGF-IR mRNA expression (IGF-IR mRNA; PC3 cells, 50 nM): > 50%
- suppression of IGF-IR mRNA expression (IGF-IR mRNA; PC3 cells, 200 nM): ~80%
- mean tumor size (PC3 tumors; after 5 weeks of treatment): 175+/−20.1 mm^3
- mean tumor size, % of control (PC3 tumors; after 5 weeks of treatment): 53.7%
- mean tumor size (PC3 tumors; after 8 weeks of treatment): 507+/−79.3 mm^3
- mean tumor size, % of control (PC3 tumors; after 8 weeks of treatment): 35.8%
- suppression of IR-B expression [2]: < 10%
- IGF-IR expression [3]: undetectable
- activation of AKT and ERK1/2 [3]: suppressed
- cleaved PARP production [3]: increased
